Results on 13 compounds are retold here after US20210041441A1, “DISCOVERY OF NOVEL MOLECULES AND REPURPOSED DRUGS FOR RAS FAMILY GTPases” (UNM Rainforest Innovations, priority 2018, published 2021).

This experiment has as its system Ras family GTPases (KRas WT, G12v, G13d, G12a, G12c, G12d, Q61H, Q61L, Q61R; HRas WT, HRas G12v; CDC42 WT, CDC42 L61; Rac1 WT, Rac1 L61). The experiment can be described thus: Multiplex flow cytometry Bodipy FL-GTP binding, compound screen and dose response. The conditions noted are these: for class of modulation of Bodipy-GTP binding to Ras family GTPases (pan activator, pan inhibitor, selective inhibitor, mixed activity modulator): multiplex, 10 nM Bodipy FL-GTP, compound 100-0.015 μM, normalized to DMSO. For orientation: In flow cytometry, cells or beads pass a laser one at a time.

Procedure: Following this initial incubation, passivated beads were collected by centrifugation and resuspended in assay buffer with individual GST-GTPase fusion proteins at a final concentration of 1 M. Overnight coupling reactions were carried out at 4° C. with rotation. The amount of each bead type used for coupling and the final volume of the coupling reaction was determined by the experimental protocol. Typically, bead sets are used at a final concentration of 200 bead/μL. To remove unbound GST-GTPase, bead sets were washed twice by centrifugation with ice-cold assay buffer. Individually coated beads were pooled together and kept cold in an appropriate volume before use in binding assays. Bead-bound proteins are sufficiently stable to study secondary interactions between GTPase-GST chimera's and Bodipy-FL GTP^54. Note that an extra GSH-bead set is included that is not protein coupled. This set serves as a ‘scavenger’ for proteins that might dissociate during the binding assay.
An equal volume (10 nL) of DMSO was added to the vehicle control wells (column 2). Following the addition of library compounds, 2 μL of assay buffer was added and the plates were mixed before addition of 5 μL of the protein-coupled bead mixtures; 10 μL of assay buffer was added to empty wells in columns 1 and 24. Empty wells serve as wash wells between compound wells and control wells. Plates were mixed and incubated on a rotator for 30 minutes at 4° C. before the addition of 3 μL of Bodipy FL-GTP resulting in a final concentration 10 nM Bodipy FL-GTP. Plates were mixed and incubated for 1 hour at 4° C. Negative controls, containing bead mixtures, Bodipy FL-GTP, and 30 μM unlabeled GTP were assayed separately. Dose response plates were assembled similarly.
Data Acquisition: Assay plates were sampled using the HyperCyt™ high throughput flow cytometry platform (Intellicyt; Albuquerque, N. Mex.). During sampling, the probe moves from well to well and samples 1-2 μL from each well with 0.4 sec transit time in the air before sampling the next well. […] Plate data are acquired as time-resolved files that are parsed by software-based well identification algorithms, segregating individual well data that is merged with compound library files to determine compound activity in each well. Gating based on red fluorescence emission distinguishes the separately coated beads. Plate performance was validated using the Z-prime calculation^58.
Dose response data points were fitted by Prism® software (GraphPad Software Inc., San Diego, Calif.) using nonlinear least-squares regression in a sigmoidal dose-response model with variable slope, also known as the 4-parameter logistic equation.
Each well of an assay plate contained 10 sets of beads with variable red fluorescent intensities. Nine protein-coupled bead sets, carrying the different GST-KRas proteins were combined with an uncoupled GSH-bead that serves as a scavenger for GST-proteins that might dissociate during the assay. Bead mixtures were dispensed into individual wells of a 384-well assay plate and incubated with fluorescent GTP in the presence of library compounds. The final concentration of reagents in each assay well was 10 μM compound, 10 nM Bodipy FL-GTP, and 0.1% DMSO. Each bead set was added at 200 beads/μL. Each plate was analyzed both in forward (starting with A1) and reverse direction to account for fluorescent compounds that can carryover during sampling and effect subsequent sample values. […] Excess GTP containing wells were evaluated separately and were used, along with the DMSO control wells, to calculate a Z′ value for each bead set. […] A secondary single point evaluation was performed on these identified primary hits.

For the compound `COc1ccc2cc([C@@H](C)C(=O)[O-])ccc2c1.[Na+]` [(R)-Naproxen sodium salt], the “activity or affinity relative to other compounds” value (multiplex dose response) is recorded as “greater activity than did the naproxen sample”. Moreover, the “class of modulation of Bodipy-GTP binding to Ras family GTPases (pan activator, pan inhibitor, selective inhibitor, mixed activity modulator)” value (listed as (R)-naproxen sodium salt, sodium salt) is “Pan activators” and the “class of modulation of Bodipy-GTP binding to Ras family GTPases (pan activator, pan inhibitor, selective inhibitor, mixed activity modulator)” value (sodium salt) is “pan activators”.

Regarding `CC1(C)CCC2=C(O1)c1ccccc1C(=O)C2=O` [Beta Lapachone], the “class of modulation of Bodipy-GTP binding to Ras family GTPases (pan activator, pan inhibitor, selective inhibitor, mixed activity modulator)” value is on record as “mixed activity modulators”. Besides, the “selectivity among GTPases (RAS vs non-RAS, individual proteins)” value (multiplex dose response) is given as “RAS activator/non-RAS inhibitor”. Further, the “class of modulation of Bodipy-GTP binding to Ras family GTPases (pan activator, pan inhibitor, selective inhibitor, mixed activity modulator)” value (listed as B-lapachone) was “mixed activity”. Moreover, the “class of modulation of Bodipy-GTP binding to Ras family GTPases (pan activator, pan inhibitor, selective inhibitor, mixed activity modulator)” value (listed as Beta-lapachone) is “modulators with mixed activity”.

For the compound `CCN(CC)CCN(Cc1ccc(-c2ccc(C(F)(F)F)cc2)cc1)C(=O)Cn1c(SCc2ccc(F)cc2)nc(=O)c2c1CCC2` [Darapladib], the “class of modulation of Bodipy-GTP binding to Ras family GTPases (pan activator, pan inhibitor, selective inhibitor, mixed activity modulator)” value is listed as “mixed activity modulators”. The “class of modulation of Bodipy-GTP binding to Ras family GTPases (pan activator, pan inhibitor, selective inhibitor, mixed activity modulator)” value (listed as darapladib) is listed as “modulators with mixed activity”.

As for `COc1cc(C)c(C(=O)Oc2cc(C)c(C(=O)O)c(O)c2C)c(OC)c1C` [Diffractaic acid], the “class of modulation of Bodipy-GTP binding to Ras family GTPases (pan activator, pan inhibitor, selective inhibitor, mixed activity modulator)” value is recorded as “pan inhibitors”. The “class of modulation of Bodipy-GTP binding to Ras family GTPases (pan activator, pan inhibitor, selective inhibitor, mixed activity modulator)” value (listed as Diffractaic Acid) is listed as “Pan inhibitors”.

For `COc1ccc(C(=O)c2ccccc2O)c(O)c1` [Dioxybenzone], the “class of modulation of Bodipy-GTP binding to Ras family GTPases (pan activator, pan inhibitor, selective inhibitor, mixed activity modulator)” value is “pan activators”. Also, the “class of modulation of Bodipy-GTP binding to Ras family GTPases (pan activator, pan inhibitor, selective inhibitor, mixed activity modulator)” value (listed as dioxybenzone) was “activators”.

For the compound `O=c1c(O)c(-c2ccc(O)c(O)c2)oc2cc(O)ccc12` [Fisetin], the “class of modulation of Bodipy-GTP binding to Ras family GTPases (pan activator, pan inhibitor, selective inhibitor, mixed activity modulator)” value is on record as “pan inhibitors”.

Turning to `O=C(O)c1ccccc1Nc1cccc(C(F)(F)F)c1` [Flufenamic Acid], the “class of modulation of Bodipy-GTP binding to Ras family GTPases (pan activator, pan inhibitor, selective inhibitor, mixed activity modulator)” value is listed as “pan activators”. The “class of modulation of Bodipy-GTP binding to Ras family GTPases (pan activator, pan inhibitor, selective inhibitor, mixed activity modulator)” value (listed as fufenamic acid) is “Pan activators”.

Turning to `CC(C(=O)O)c1ccc(-c2ccccc2)c(F)c1` (centres unmarked) [Flurbiprofen], the “class of modulation of Bodipy-GTP binding to Ras family GTPases (pan activator, pan inhibitor, selective inhibitor, mixed activity modulator)” value was “pan activators”. The “class of modulation of Bodipy-GTP binding to Ras family GTPases (pan activator, pan inhibitor, selective inhibitor, mixed activity modulator)” value (listed as fluribuprofen) is recorded as “Pan activators”.

With `Nc1nc2ncc(CNc3ccc(C(=O)N[C@@H](CCC(=O)O)C(=O)O)cc3)nc2c(=O)[nH]1` [Folic acid], the “class of modulation of Bodipy-GTP binding to Ras family GTPases (pan activator, pan inhibitor, selective inhibitor, mixed activity modulator)” value is on record as “pan inhibitors”.

Consider `CN(C)CCCn1cc(C2=C(c3c[nH]c4ccccc34)C(=O)NC2=O)c2ccccc21` [GF109203X], for which the “class of modulation of Bodipy-GTP binding to Ras family GTPases (pan activator, pan inhibitor, selective inhibitor, mixed activity modulator)” value is recorded as “modulators with mixed activity”. Further, the “selectivity among GTPases (RAS vs non-RAS, individual proteins)” value (multiplex dose response) was “selective activator non-RAS”.

Take `O=C(NCCS(=O)(=O)c1ccc(C(F)(F)F)cn1)c1ccc(Cl)cc1` [GSK 3787]: the “class of modulation of Bodipy-GTP binding to Ras family GTPases (pan activator, pan inhibitor, selective inhibitor, mixed activity modulator)” value is “pan inhibitors”. Further, for the setting “listed as GSK3787”, the “class of modulation of Bodipy-GTP binding to Ras family GTPases (pan activator, pan inhibitor, selective inhibitor, mixed activity modulator)” value is recorded as “Pan inhibitors”.

In the case of `Oc1ccc2ccccc2c1SSc1c(O)ccc2ccccc12` [IPA 3], the “class of modulation of Bodipy-GTP binding to Ras family GTPases (pan activator, pan inhibitor, selective inhibitor, mixed activity modulator)” value is listed as “pan inhibitors”.

On to `CCC(Cc1c(I)cc(I)c(N)c1I)C(=O)O` (centres unmarked) [Iopanic acid], for which the “class of modulation of Bodipy-GTP binding to Ras family GTPases (pan activator, pan inhibitor, selective inhibitor, mixed activity modulator)” value is on record as “pan activators”. Further, the “class of modulation of Bodipy-GTP binding to Ras family GTPases (pan activator, pan inhibitor, selective inhibitor, mixed activity modulator)” value (listed as iopanic acid) is on record as “activators”.
